Measured values reported in US20030134842A1, “METHODS FOR THE TREATMENT OR PREVENTION OF INFLAMMATORY DISEASES CHARACTERIZED BY ABNORMAL CELL PROLIFERATION” (priority 1997, published 2003).

How the values were obtained:
[1] = system: NIH 3T3 mouse fibroblast cells; assay: Mitogenic assay (mitogen-induced cell proliferation); format: cell-based; conditions: 10 µM compound, NIH 3T3 mouse fibroblast cells
[2] = target: T1, red cell Gardos channel (Mus musculus, UniProt O89109); conditions: SAD mouse, oral administration; cited from earlier work
T1 construct: host or cells: red cells of the SAD mouse, in vivo

[3] = system: MM-RU human melanoma cells; conditions: SCID mice inoculated with MM-RU human melanoma cells, daily administration; cited from earlier work
[4] = target: T2, Gardos channel (Homo sapiens, UniProt O15554); conditions: patients with sickle cell disease, oral; cited from earlier work
T2 construct: reduces erythrocyte dehydration in patients with sickle cell disease; host or cells: erythrocytes of sickle cell patients, in vivo
T2 sequence (O15554 whole entry): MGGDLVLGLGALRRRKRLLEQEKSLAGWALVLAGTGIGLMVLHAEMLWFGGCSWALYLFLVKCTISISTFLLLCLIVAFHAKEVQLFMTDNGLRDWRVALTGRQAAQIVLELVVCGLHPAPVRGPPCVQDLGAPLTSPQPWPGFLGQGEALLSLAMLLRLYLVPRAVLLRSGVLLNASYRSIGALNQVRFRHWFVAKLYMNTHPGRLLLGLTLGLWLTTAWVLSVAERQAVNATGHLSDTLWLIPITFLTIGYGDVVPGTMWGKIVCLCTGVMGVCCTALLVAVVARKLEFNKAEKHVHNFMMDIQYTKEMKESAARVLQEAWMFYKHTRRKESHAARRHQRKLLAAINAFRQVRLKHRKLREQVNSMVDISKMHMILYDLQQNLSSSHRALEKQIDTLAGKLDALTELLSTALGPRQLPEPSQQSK

T1 sequence (O89109 whole entry): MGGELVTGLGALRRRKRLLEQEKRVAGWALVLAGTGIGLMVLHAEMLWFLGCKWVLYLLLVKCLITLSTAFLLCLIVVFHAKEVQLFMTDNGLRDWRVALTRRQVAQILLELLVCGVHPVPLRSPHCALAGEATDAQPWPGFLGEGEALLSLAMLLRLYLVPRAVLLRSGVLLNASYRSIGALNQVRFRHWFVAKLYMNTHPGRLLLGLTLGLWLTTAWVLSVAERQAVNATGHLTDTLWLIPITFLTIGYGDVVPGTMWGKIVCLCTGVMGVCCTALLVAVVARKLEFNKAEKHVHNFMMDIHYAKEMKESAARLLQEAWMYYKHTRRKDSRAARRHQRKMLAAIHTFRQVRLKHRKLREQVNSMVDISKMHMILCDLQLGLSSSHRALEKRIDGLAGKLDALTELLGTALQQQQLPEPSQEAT

Clc1ccccc1C(c1ccccc1)(c1ccccc1)n1ccnc1 [Clotrimazole]
Mitogenic Assay Inhibition [1]: 93.0% | red cell Gardos channel, K+ content, MCHC, cell density [2]: inhibition of the red cell Gardos channel, increased red cell K^+ content, a decreased mean cell hemoglobin concentration (MCHC) and decreased cell density | number of lung metastases [3]: significant reduction in the number of lung metastases observed | Gardos channel inhibition and erythrocyte dehydration [4]: induces inhibition of the Gardos channel and reduces erythrocyte dehydration
